In patent US8658661B2, “Oxadiazole inhibitors of leukotriene production” (Boehringer Ingelheim International GmbH, priority 2010, dated 2014) one finds IC50 data, which are given here for 29 compounds.

Experiment [1] concerns the target T1, recombinant human FLAP protein (Homo sapiens, UniProt P20292).
T1 construct: made in house; host or cells: Sf9 insect cells (100,000×g membrane pellet used)
T1 sequence (P20292 1-161): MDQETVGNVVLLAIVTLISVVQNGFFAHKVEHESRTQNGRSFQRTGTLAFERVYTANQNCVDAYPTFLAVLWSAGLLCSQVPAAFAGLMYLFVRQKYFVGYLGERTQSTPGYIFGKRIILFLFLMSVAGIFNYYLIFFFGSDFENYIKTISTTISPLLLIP
The experiment is described as follows: FLAP binding assay (SPA, displacement of [125I]L-691,831). How it is done: Assessment of Biological Properties 1. Binding Assay
Compounds are assessed for the ability to bind to FLAP in a binding assay that measures compound-specific displacement of an iodinated (^125I) FLAP inhibitor via a Scintillation Proximity Assay format (adapted from S. Charleson et al., Mol. Pharmacol., 1992, 41, 873-879).
Cell pellets produced from sf9 insect cells expressing recombinant human FLAP protein are resuspended in buffer A [15 mM Tris-HCl (pH 7.5), 2 mM MgCl2, 0.3 mM EDTA, 1 mM PMSF]. The cells are lysed with a Dounce homogenizer and the material is centrifuged at 10,000×g for 10 minutes. The supernatant is then collected and centrifuged at 100,000×g for 60 minutes. To prepare membrane protein for an assay, an aliquot of the 100,000×g pellet is resuspended in 1 ml of buffer A, Dounce homogenized, and finally subjected to polytron mixing (30 seconds). Membrane protein (25 μl, 5 μg) is mixed with WGA SPA beads (Amersham) and stirred for 1 h. […] (final concentrations: beads, 200 μg/well; protein, 5 μg/well; [^125I] probe, 0 08 nM/well (17 nCi/well). The plates are shaken for 2 h before reading on a Microbeta plate reader. Non-specific binding is determined by the addition of 10 μM cold L-691,831 compound.
On the technique in general: Displacement assays read how much labelled ligand stays bound in the presence of the test substance.

Experiment [2] has as its system synthesis of LTB4 in human whole blood. The experiment is described as follows: Human whole blood assay (inhibition of LTB4 synthesis, calcimycin stimulated). The format is cell-based. As to conditions: heparinized human whole blood, calcimycin 20 μM, plasma LTB4. The procedure: Compounds are additionally tested in a human whole blood assay to determine their ability to inhibit the synthesis of LTB4 in a cellular system. Compounds are combined with heparinized human whole blood and incubated for 15 minutes at 37° C. Calcimycin (20 μM final, prepared in phosphate-buffered saline, pH 7.4) is then added and the mixture is incubated for another 30 minutes at 37° C. The samples are centrifuged for 5 min at low speed (1500×g) and the plasma layer is removed. Plasma LTB4 concentrations are then measured using an antibody-based homogenous time-resolved fluorescence method (CisBio, Bedford, Mass.).

[3] abbreviates: membranes of sf9 cells expressing recombinant human FLAP, [125I]L-691,831 probe, read-out: FLAP binding IC50.

Where two headings read alike, the source gives them in different places.

Usually IC50 stands for the concentration at which inhibition is half-maximal. With `CC(C)[C@](C)(c1ccc(-c2cnc(N)nc2)cc1)c1noc(-c2cnn(C)c2)n1` (single isomer, unassigned) [Example 46], the IC50 in experiment [1] stood at 1.6 nM; in experiment [2], 33 nM.
The like results for `CC(C)[C@@](C)(c1ccc(-c2cnc(N)nc2)cc1)c1noc(-c2cnn(C)c2)n1` (single isomer, unassigned) [Example 47] were, in that order, 7.7 nM and 360 nM.
In the case of `CC(C)(CO)Nc1cnc(-c2nc([C@@](C)(c3ccc(-c4cnc(N)nc4)cc3)C3CC3)no2)cn1` (single isomer, unassigned) [Example 56], the figures for the IC50 in experiment [1] (setting [3]) and in experiment [2] were 2.4 nM and 79 nM, respectively.
The like results for `CC(C)(CO)Nc1cnc(-c2nc([C@](C)(c3ccc(-c4cnc(N)nc4)cc3)C3CC3)no2)cn1` (single isomer, unassigned) [Example 57] were, in that order, 6.8 nM and 150 nM.
Taken in the same sequence, the figures for `CN(C)C(=O)Cn1cc(-c2nc([C@@](C)(c3ccc(-c4cnc(N)nc4)cc3)C3CC3)no2)cn1` (single isomer, unassigned) [Example 115] were 1.9 nM and 58 nM.
The like results for `CN(C)C(=O)Cn1cc(-c2nc([C@](C)(c3ccc(-c4cnc(N)nc4)cc3)C3CC3)no2)cn1` (single isomer, unassigned) [Example 116] were, in that order, 150 nM and 2000 nM.
For the compound `CC(C)[C@@](C)(c1ccc(-c2cnc(N)nc2)cc1)c1noc(N2CCC(O)CC2)n1` (single isomer, unassigned) [Example 224], in experiment [2], the IC50 worked out at 760 nM.
`COc1cncc(-c2ccc(C(C)(c3noc(-c4cnccn4)n3)C(C)C)cc2)c1` (stereo not drawn) [Example 1, 2-(3-{2-[4-(5-methoxypyridin-3-yl)phenyl]-3-methylbutan-2-yl}-1,2,4-oxadiazol-5-yl)pyrazine]: the half-maximal inhibitory concentration (IC50) in experiment [1] (setting [3]) was 57 nM.
On to `CC(C)C(C)(c1ccc(-c2cnc(N)nc2)cc1)c1noc(-c2ccccc2)n1` (stereo not drawn) [Example 2, 5-{4-[3-methyl-2-(5-phenyl-1,2,4-oxadiazol-3-yl)butan-2-yl]phenyl}pyrimidin-2-amine], for which the results for the IC50 in experiment [1] (setting [3]) and in experiment [2] were 5.1 nM and 680 nM, respectively.
The like results for `CC(C)C(C)(c1ccc(-c2cnc(N)nc2)cc1)c1noc(-c2cccnc2)n1` (stereo not drawn) [Example 3, 5-(4-{3-methyl-2-[5-(pyridin-3-yl)-1,2,4-oxadiazol-3-yl]butan-2-yl}phenyl)pyrimidin-2-amine] were, in that order, 1.7 nM and 94 nM.
The like results for `Cc1ccc(-c2nc(C(C)(c3ccc(-c4cnc(N)nc4)cc3)C(C)C)no2)cn1` (stereo not drawn) [Example 4, 5-(4-{3-methyl-2-[5-(6-methylpyridin-3-yl)-1,2,4-oxadiazol-3-yl]butan-2-yl}phenyl)pyrimidin-2-amine] were, in that order, 1.6 nM and 310 nM.
Taken in the same sequence, the figures for `Cc1ncccc1-c1nc(C(C)(c2ccc(-c3cnc(N)nc3)cc2)C(C)C)no1` (stereo not drawn) [Example 5, 5-(4-{3-methyl-2-[5-(2-methylpyridin-3-yl)-1,2,4-oxadiazol-3-yl]butan-2-yl}phenyl)pyrimidin-2-amine] were 1.6 nM and 150 nM.
As to `CC(C)C(C)(c1ccc(-c2cnc(N)c(CO)c2)cc1)c1noc(-c2cccnc2)n1` (stereo not drawn) [Example 6, [2-amino-5-(4-{3-methyl-2-[5-(pyridin-3-yl)-1,2,4-oxadiazol-3-yl]butan-2-yl}phenyl)pyridin-3-yl]methanol], the IC50 in experiment [1] (setting [3]) stood at 1.1 nM; in experiment [2] it was 70 nM.
Taken in the same sequence, the figures for `CC(C)C(C)(c1ccc(-c2cnc(N)nc2)cc1)c1noc(-c2ccc(Cl)nc2)n1` (stereo not drawn) [Example 7, 5-(4-{2-[5-(6-chloropyridin-3-yl)-1,2,4-oxadiazol-3-yl]-3-methylbutan-2-yl}phenyl)pyrimidin-2-amine] were 3.1 nM and 560 nM.
The like results for `COc1ccc(-c2nc(C(C)(c3ccc(-c4cnc(N)nc4)cc3)C(C)C)no2)cn1` (stereo not drawn) [Example 8, 5-(4-{2-[5-(6-methoxypyridin-3-yl)-1,2,4-oxadiazol-3-yl]-3-methylbutan-2-yl}phenyl)pyrimidin-2-amine] were, in that order, 3.8 nM and 530 nM.
The like results for `CC(C)C(C)(c1ccc(-c2cnc(N)nc2)cc1)c1noc(-c2ccc(=O)[nH]c2)n1` (stereo not drawn) [Example 9, 5-(3-{2-[4-(2-aminopyrimidin-5-yl)phenyl]-3-methylbutan-2-yl}-1,2,4-oxadiazol-5-yl)pyridin-2(1H)-one] were, in that order, 2.9 nM and 210 nM.
For the compound `COc1ncccc1-c1nc(C(C)(c2ccc(-c3cnc(N)nc3)cc2)C(C)C)no1` (stereo not drawn) [Example 10, 5-(4-{2-[5-(2-methoxypyridin-3-yl)-1,2,4-oxadiazol-3-yl]-3-methylbutan-2-yl}phenyl)pyrimidin-2-amine], the 50% inhibitory concentration (IC50) in experiment [1] (setting [3]) stood at 4.3 nM.
On to `COc1ccncc1-c1nc(C(C)(c2ccc(-c3cnc(N)nc3)cc2)C(C)C)no1` (stereo not drawn) [Example 11, 5-(4-{2-[5-(4-methoxypyridin-3-yl)-1,2,4-oxadiazol-3-yl]-3-methylbutan-2-yl}phenyl)pyrimidin-2-amine], for which the IC50 in experiment [1] (setting [3]) turned out to be 1.9 nM; in experiment [2] it was 89 nM.
Taken in the same sequence, the figures for `CC(C)C(C)(c1ccc(-c2cnc(N)nc2)cc1)c1noc(-c2ccc[nH]c2=O)n1` (stereo not drawn) [Example 12, 3-(3-{2-[4-(2-aminopyrimidin-5-yl)phenyl]-3-methylbutan-2-yl}-1,2,4-oxadiazol-5-yl)pyridin-2(1H)-one] were 3.3 nM and 290 nM.
Turning to `Cc1csc(-c2nc(C(C)(c3ccc(-c4cnc(N)nc4)cc3)C(C)C)no2)n1` (stereo not drawn) [Example 131, 5-(4-{3-methyl-2-[5-(4-methyl-1,3-thiazol-2-yl)-1,2,4-oxadiazol-3-yl]butan-2-yl}phenyl)pyrimidin-2-amine], the IC50 in experiment [1] (setting [3]) was 8.7 nM.
The same measure, in the same setting: for `CC(C)C(C)(c1ccc(-c2cnc(N)nc2)cc1)c1noc(-c2nccs2)n1` (stereo not drawn) [Example 139, 5-(4-{3-methyl-2-[5-(1,3-thiazol-2-yl)-1,2,4-oxadiazol-3-yl]butan-2-yl}phenyl)pyrimidin-2-amine] the value was 4.4 nM; for `CC(C)C(C)(c1ccc(-c2cnc(N)nc2)cc1)c1noc(-c2ccccc2S(C)(=O)=O)n1` (stereo not drawn) [Example 149, 5-[4-(3-methyl-2-{5-[2-(methylsulfonyl)phenyl]-1,2,4-oxadiazol-3-yl}butan-2-yl)phenyl]pyrimidin-2-amine], 58 nM; for `CC(C)C(C)(c1ccc(-c2cnc(N)nc2)cc1)c1noc(-c2cnc(=O)[nH]c2)n1` (stereo not drawn) [Example 154, 5-(3-{2-[4-(2-aminopyrimidin-5-yl)phenyl]-3-methylbutan-2-yl}-1,2,4-oxadiazol-5-yl)pyrimidin-2(1H)-one], 3.3 nM.
Same read-out and setting: for `CC(C)C(C)(c1ccc(-c2cnc(N)nc2)cc1)c1noc(C2CC2)n1` (stereo not drawn) [Example 156, 5-{4-[2-(5-cyclopropyl-1,2,4-oxadiazol-3-yl)-3-methylbutan-2-yl]phenyl}pyrimidin-2-amine] the value was 15 nM.
`CC(c1ccc(-c2cnc(N)nc2)cc1)(c1noc(N2CCC(O)CC2)n1)C1CC1` (stereo not drawn) [Example 205, 1-(3-{1-[4-(2-Amino-pyrimidin-5-yl)-phenyl]-1-cyclopropyl-ethyl}-[1,2,4]oxadiazol-5-yl)-piperidin-4-ol]: the IC50 in experiment [2] was found to be 68 nM.
The same measure, in the same setting: for `CC(C)C(C)(c1ccc(-c2cnc(N)nc2)cc1)c1noc(N2CCC(C)(O)CC2)n1` (stereo not drawn) [Example 216, 1-(3-{1-[4-(2-Amino-pyrimidin-5-yl)-phenyl]-1,2-dimethyl-propyl}-[1,2,4]oxadiazol-5-yl)-4-methyl-piperidin-4-ol] the value was 34 nM; for `CC(C)[C@@](C)(c1ccc(-c2cnc(N)nc2)cc1)c1noc(N2CCC(C)(O)CC2)n1` [Example 228, 1-(3-{(S)-1-[4-(2-Amino-pyrimidin-5-yl)-phenyl]-1,2-dimethyl-propyl}-[1,2,4]oxadiazol-5-yl)-4-methyl-piperidin-4-ol], 550 nM.
As for `C[C@](c1ccc(-c2cnc(N)nc2)cc1)(c1noc(N2CCC(O)CC2)n1)C1CC1` [Example 234, 1-(3-{(S)-1-[4-(2-Amino-pyrimidin-5-yl)-phenyl]-1-cyclopropyl-ethyl}-[1,2,4]oxadiazol-5-yl)-piperidin-4-ol], in experiment [2], the IC50 amounted to 1000 nM.
Still for that read-out and setting: for `CC(C)C(C)(c1ccc(-c2cnc(N)nc2)cc1)c1noc(N2CCC(O)CC2)n1` (stereo not drawn) [Example 262, 1-(3-{1-[4-(2-Amino-pyrimidin-5-yl)-phenyl]-1,2-dimethyl-propyl}-[1,2,4]oxadiazol-5-yl)-piperidin-4-ol] the value was 84 nM.
